According to PubChem BioAssay (NCI):
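Cultured in 96-well plates, cells were exposed to test compound for 48 hours across five concentrations. TGI: concentration producing complete growth inhibition.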

Columns and labels:
Assay in all cases: growth of human tumour cells (NCI), 48 h
HCC-2998 colon = tested on: HCC-2998 colon
M14 melanoma = tested on: M14 melanoma
MALME-3M melanoma = tested on: MALME-3M melanoma
MDA-MB-231 breast = tested on: MDA-MB-231 breast
NCI-H226 lung = tested on: NCI-H226 lung
PC-3 prostate = tested on: PC-3 prostate
SF-268 CNS = tested on: SF-268 CNS
SK-MEL-28 melanoma = tested on: SK-MEL-28 melanoma
SN12C renal = tested on: SN12C renal
SR leukemia = tested on: SR leukemia
UO-31 renal = tested on: UO-31 renal

| SMILES | TGI (HCC-2998 colon) | TGI (M14 melanoma) | TGI (MALME-3M melanoma) | TGI (MDA-MB-231 breast) | TGI (NCI-H226 lung) | TGI (PC-3 prostate) | TGI (SF-268 CNS) | TGI (SK-MEL-28 melanoma) | TGI (SN12C renal) | TGI (SR leukemia) | TGI (UO-31 renal) |
| --- | --- | --- | --- | --- | --- | --- | --- | --- | --- | --- | --- |
| NC1CC2C3CCC2C1C3=O (configuration not stated) | > 100 µM | > 100 µM | > 100 µM | > 100 µM | > 100 µM | > 100 µM | > 100 µM | > 100 µM | > 100 µM | > 100 µM | > 100 µM |
| CC1=C(C(=O)OCCO[N+](=O)[O-])C(c2ccccc2C(F)(F)F)C(C(=O)OC(C)C)=C(C)N1 (configuration not stated) | > 100 µM | 31.4 µM | 58.1 µM | 23.5 µM | 27.4 µM | 34.5 µM | 47.9 µM | 33.5 µM | 36.8 µM | > 100 µM | 33.6 µM |
| CCN1/C(=C/c2ccc3ccccc3[n+]2CC)C=Cc2ccccc21 | 13.4 µM | 12.8 µM | 6.89 µM | 8.12 µM | 9.71 µM | 4.58 µM | 16.5 µM | 15.9 µM | 12.8 µM | > 100 µM | 8.45 µM |
| O=C(CCCCCCCCC(=O)NN1C(=O)/C(=C\c2ccc(O)c(O)c2)SC1c1c(O)ccc2ccccc12)NN1C(=O)C(=Cc2ccc(O)c(O)c2)SC1c1c(O)ccc2ccccc12 (configuration not stated) | > 100 µM | > 48.5 µM | 74 µM | > 87.7 µM | > 100 µM | > 100 µM | > 100 µM | > 100 µM | > 87.4 µM | > 30.8 µM | 26.8 µM |
| CCC(=O)OCc1ccc2oc(=O)c(C(=O)Oc3cncc(Cl)c3)cc2c1 | > 100 µM | > 100 µM | > 100 µM | > 100 µM | > 100 µM | > 100 µM | > 100 µM | > 100 µM | > 100 µM | > 100 µM | > 100 µM |
| COC1(OC)N=C(N)C2(C#N)C(C)CC(=O)N(N(C)C)C12C#N (configuration not stated) | > 100 µM | > 100 µM | > 100 µM | > 100 µM | > 100 µM | > 100 µM | > 100 µM | > 100 µM | > 100 µM | > 100 µM | > 100 µM |
| COc1ccc(-c2cc(-c3ccc(Nc4ccnc5cc(C(F)(F)F)ccc45)cc3)[nH]c(=O)c2C#N)c2ccccc12 | > 100 µM | > 70.7 µM | > 63.2 µM | > 59.8 µM | > 100 µM | > 100 µM | > 100 µM | > 100 µM | > 100 µM | > 48.9 µM | > 65.9 µM |
